In the NIST ThermoML archive (doi:10.1016/j.jct.2013.03.015):

Experiment: molar heat capacity at constant pressure; xn = mol fraction of the nth substance listed
Conditions: 101 kPa, Crystal, relaxation calorimetry - PPMS by Quantum Design

[Cl-].[K+] [potassium chloride] + [Cl-].[Na+]
Conditions	molar heat capacity at constant pressure [J/K/mol]
40.5 K, x2 = 0.2	15.06
40.52 K, x2 = 0.1	15.25
40.53 K, x2 = 0.9	10.98
43.41 K, x2 = 0.2	16.89
43.43 K, x2 = 0.1	17.11
43.45 K, x2 = 0.9	12.63
46.53 K, x2 = 0.2	18.81
46.57 K, x2 = 0.1	19.04
46.58 K, x2 = 0.9	14.4
49.87 K, x2 = 0.2	20.73
49.91 K, x2 = 0.1	21.01
49.93 K, x2 = 0.9	16.28
53.47 K, x2 = 0.2	22.73
53.5 K, x2 = 0.1	23
53.53 K, x2 = 0.9	18.23
57.32 K, x2 = 0.2	24.73
57.34 K, x2 = 0.1	25.02
57.38 K, x2 = 0.9	20.25
61.44 K, x2 = 0.2	26.7
61.47 K, x2 = 0.1	26.98
61.51 K, x2 = 0.9	22.26
65.86 K, x2 = 0.2	28.67
65.89 K, x2 = 0.1	28.95
65.94 K, x2 = 0.9	24.31
70.6 K, x2 = 0.2	30.6
70.63 K, x2 = 0.1	30.88
70.69 K, x2 = 0.9	26.32
75.67 K, x2 = 0.2	32.39
75.7 K, x2 = 0.1	32.61
75.77 K, x2 = 0.9	28.27
81.11 K, x2 = 0.2	34.17
81.13 K, x2 = 0.1	34.4
81.21 K, x2 = 0.9	30.13
86.93 K, x2 = 0.2	35.85
86.95 K, x2 = 0.1	36.07
87.05 K, x2 = 0.9	32.29
93.14 K, x2 = 0.1	37.49
93.15 K, x2 = 0.2	37.32
93.3 K, x2 = 0.9	34.01
99.83 K, x2 = 0.1	39.05
99.85 K, x2 = 0.2	38.84
100.02 K, x2 = 0.9	35.79
107.02 K, x2 = 0.1	40.33
107.03 K, x2 = 0.2	40.15
107.21 K, x2 = 0.9	37.38
114.72 K, x2 = 0.1	41.63
114.72 K, x2 = 0.2	41.45
114.92 K, x2 = 0.9	38.92
122.97 K, x2 = 0.1	42.71
122.97 K, x2 = 0.2	42.57
123.18 K, x2 = 0.9	40.27
131.81 K, x2 = 0.1	43.7
131.82 K, x2 = 0.2	43.53
132.04 K, x2 = 0.9	41.45
141.3 K, x2 = 0.1	44.69
141.3 K, x2 = 0.2	44.51
141.54 K, x2 = 0.9	42.61
151.45 K, x2 = 0.2	45.39
151.46 K, x2 = 0.1	45.56
151.71 K, x2 = 0.9	43.67
162.35 K, x2 = 0.2	46.18
162.37 K, x2 = 0.1	46.3
162.61 K, x2 = 0.9	44.81
174.02 K, x2 = 0.2	46.93
174.06 K, x2 = 0.1	47.07
174.32 K, x2 = 0.9	45.52
186.55 K, x2 = 0.2	47.5
186.58 K, x2 = 0.1	47.69
186.88 K, x2 = 0.9	46.21
199.96 K, x2 = 0.2	48.19
199.99 K, x2 = 0.1	48.31
200.33 K, x2 = 0.9	47.11
214.35 K, x2 = 0.2	48.72
214.36 K, x2 = 0.1	48.85
214.74 K, x2 = 0.9	47.78
229.74 K, x2 = 0.2	49.19
229.76 K, x2 = 0.1	49.26
230.17 K, x2 = 0.9	48.37
246.25 K, x2 = 0.2	49.8
246.27 K, x2 = 0.1	49.83
246.73 K, x2 = 0.9	49.07
263.91 K, x2 = 0.2	50.18
263.93 K, x2 = 0.1	50.3
264.44 K, x2 = 0.9	49.55
282.86 K, x2 = 0.2	50.68
282.87 K, x2 = 0.1	50.88
283.42 K, x2 = 0.9	50.22
303.12 K, x2 = 0.2	51.21
303.18 K, x2 = 0.1	51.27
303.77 K, x2 = 0.9	50.61
